Experimental data as given in EP0641797A1, “Cephem derivatives and antimicrobial agents containing the same” (KATAYAMA SEIYAKUSYO CO. Ltd., priority 1993, dated 1995).
≈ marks a conversion by molar mass, not a printed value.

Assays:
Assay in all cases: MIC on standard strains, standard method of Japan Society of Chemotherapy
Assay type in all cases: cell-based
K. pneuminiae IFO 3317 = test system: K. pneuminiae IFO 3317
Description: (§1) Antimicrobial activity of the compounds of the present invention were measured using CTM (cefotiam) and FMOX (flomoxef) as control drugs in accordance with the standard method of Japan Society of Chemotherapy. Of the 25 standard strains used in this test, Staphylococcus aureus 167 and Staphylococcus aureus 195 belong to MRSA.
(§2) In these tables, drugs tested are shown by the corresponding examples in which they were synthesized.

M. luteus ATCC 9341 = conditions: Micrococcus luteus, ATCC9341
Description: as §1, §2

S. aureus 167 = conditions: Staphylococcus aureus; S. aureus 167 (MRSA)
Description: as §1, §2

S. marcescens No. 16-2 = conditions: Serratia marcescens, NO.162
Description: as §1, §2

A. calcoaceticos T59 = conditions: read-out: MIC
Description: as §1, §2

M. morganii IFO 3848 = conditions: Morganella morganii, IFO3848
Description: as §1, §2

E. coli NHIJ JC-2 = conditions: Escherichia coli, NHIJJC2
Description: as §1, §2

E. cloacae Nek39 = conditions: Enterobacter cloacae, NEK39, E. cloacae Nek39; read-out: MIC
Description: as §1, §2

E. coli CSH2(RK1) = conditions: Escherichia coli
Description: as §1, §2

S. aureus 209p JC-1 = conditions: Staphylococcus aureus, 209P, read-out: MIC
Description: as §1, §2

P. aeruginosa NCTC 10490 = conditions: Pseudomonas aeruginosa, NCTC10490, P. aeruginosa NCTC 10490; read-out: MIC
Description: as §1, §2

P. mirabilis IFO 3849 = conditions: Proteus mirabilis, IFO3849, P. mirabilis IFO 3849; read-out: MIC
Description: as §1, §2

B. subtilis ATCC 6633 = conditions: Bacillus subtilis, ATCC6633, B. subtilis ATCC 6633; read-out: MIC
Description: as §1, §2

C. freundii ATCC 8090 = conditions: Citrobacter freundii, ATCC8090, C. freundii ATCC 8090; read-out: MIC
Description: as §1, §2

S. aureus 195 = conditions: Staphylococcus aureus; S. aureus 195 (MRSA)
Description: as §1, §2

K. pneuminiae No. 42 = test system: K. pneuminiae No. 42
Description: as §1, §2

P. cepacia = conditions: Burkholderia cepacia, read-out: MIC
Description: as §1, §2

E. coli CSH2(RE45) = conditions: Escherichia coli
Description: as §1, §2

E. cloacae ATCC 13407 = conditions: Enterobacter cloacae, ATCC13407, E. cloacae ATCC 13407; read-out: MIC
Description: as §1, §2

S. aureus Smith = conditions: Staphylococcus aureus, read-out: MIC
Description: as §1, §2

S. epidemidis IAM 1296 = test system: S. epidemidis IAM 1296
Description: as §1, §2

P. aeruginosa AKR17 = conditions: Pseudomonas aeruginosa
Description: as §1, §2

A. faecalis ATCC 3750 = conditions: Alcaligenes faecalis, ATCC3750, A. faecalis ATCC 3750; read-out: MIC
Description: as §1, §2

P. vulugaris OX-19 = test system: P. vulugaris OX-19
Description: as §1, §2

S. marcescens IAM 1184 = conditions: Serratia marcescens, IAM1184, S. marcescens IAM 1184; read-out: MIC
Description: as §1, §2

SMILES	MIC (K. pneuminiae IFO 3317) [µg/mL]	MIC (M. luteus ATCC 9341) [µg/mL]	MIC (S. aureus 167) [µg/mL]	MIC (S. marcescens No. 16-2) [µg/mL]	MIC (A. calcoaceticos T59) [µg/mL]	MIC (M. morganii IFO 3848) [µg/mL]	MIC (E. coli NHIJ JC-2) [µg/mL]	MIC (E. cloacae Nek39) [µg/mL]	MIC (E. coli CSH2(RK1)) [µg/mL]	MIC (S. aureus 209p JC-1) [µg/mL]	MIC (P. aeruginosa NCTC 10490) [µg/mL]	MIC (P. mirabilis IFO 3849) [µg/mL]	MIC (B. subtilis ATCC 6633) [µg/mL]	MIC (C. freundii ATCC 8090) [µg/mL]	MIC (S. aureus 195) [µg/mL]	MIC (K. pneuminiae No. 42) [µg/mL]	MIC (P. cepacia) [µg/mL]	MIC (E. coli CSH2(RE45)) [µg/mL]	MIC (E. cloacae ATCC 13407) [µg/mL]	MIC (S. aureus Smith) [µg/mL]	further results
NC(=O)Cc1ccc[n+](CC2=C(C(=O)[O-])N3C(=O)[C@@H](NC(=O)/C(=N\O)c4nsc(N)n4)[C@H]3SC2)c1 [Ex. 1, 7β-[2-(5-amino-1,2,4-thiadiazol-3-yl)-2-syn-hydroxyiminoacetamido]-3-(3-carbamoylmethylpyridinio)methyl-3-cephem-4-carboxylate]	0.78 (≈ 1.5 µM)	0.2 (≈ 0.386 µM)	12.5 (≈ 24.1 µM)	> 100	3.13 (≈ 6.04 µM)	1.56 (≈ 3.01 µM)	1.56 (≈ 3.01 µM)	100 (≈ 193 µM)	3.13 (≈ 6.04 µM)	0.78 (≈ 1.5 µM)	0.78 (≈ 1.5 µM)	1.56 (≈ 3.01 µM)	0.39 (≈ 0.752 µM)	1.56 (≈ 3.01 µM)	12.5 (≈ 24.1 µM)	1.56 (≈ 3.01 µM)	> 100	3.13 (≈ 6.04 µM)	3.13 (≈ 6.04 µM)	1.56 (≈ 3.01 µM)	MIC (S. epidemidis IAM 1296): 0.39 µg/mL (≈ 0.752 µM); MIC (P. aeruginosa AKR17): > 100 µg/mL; MIC (A. faecalis ATCC 3750): 6.25 µg/mL (≈ 12.1 µM); MIC (P. vulugaris OX-19): 3.13 µg/mL (≈ 6.04 µM); MIC (S. marcescens IAM 1184): 0.78 µg/mL (≈ 1.5 µM)
NC(=O)Nc1ccc[n+](CC2=C(C(=O)[O-])N3C(=O)[C@@H](NC(=O)/C(=N\O)c4nsc(N)n4)[C@H]3SC2)c1 [Ex. 2, 7β-[2-(5-amino-1,2,4-thiadiazol-3-yl)-2-syn-hydroxyiminoacetamido]-3-(3-ureidopyridinio)methyl-3-cephem-4-carboxylate]	0.39 (≈ 0.751 µM)	0.05 (≈ 0.0962 µM)	6.25 (≈ 12 µM)	100 (≈ 192 µM)	1.56 (≈ 3 µM)	0.78 (≈ 1.5 µM)	0.78 (≈ 1.5 µM)	100 (≈ 192 µM)	1.56 (≈ 3 µM)	0.39 (≈ 0.751 µM)	0.78 (≈ 1.5 µM)	1.56 (≈ 3 µM)	0.39 (≈ 0.751 µM)	0.78 (≈ 1.5 µM)	3.13 (≈ 6.02 µM)	0.78 (≈ 1.5 µM)	> 100	0.78 (≈ 1.5 µM)	6.25 (≈ 12 µM)	0.78 (≈ 1.5 µM)	MIC (S. epidemidis IAM 1296): 0.2 µg/mL (≈ 0.385 µM); MIC (P. aeruginosa AKR17): > 100 µg/mL; MIC (A. faecalis ATCC 3750): 3.13 µg/mL (≈ 6.02 µM); MIC (P. vulugaris OX-19): 1.56 µg/mL (≈ 3 µM); MIC (S. marcescens IAM 1184): 0.39 µg/mL (≈ 0.751 µM)
Nc1nc(/C(=N/O)C(=O)N[C@@H]2C(=O)N3C(C(=O)[O-])=C(C[n+]4ccc(-c5ncno5)cc4)CS[C@H]23)cs1 [Ex. 8, 7β-[2-(2-aminothiazol-4-yl)-2-syn-hydroxyiminoacetamido]-3-[4-(1,2,4-oxadiazol-5-yl)pyridinio]methyl-3-cephem-4-carboxylate]	0.2 (≈ 0.378 µM)	0.05 (≈ 0.0946 µM)	12.5 (≈ 23.7 µM)	100 (≈ 189 µM)	12.5 (≈ 23.7 µM)	0.05 (≈ 0.0946 µM)	0.39 (≈ 0.738 µM)	50 (≈ 94.6 µM)	1.56 (≈ 2.95 µM)	0.39 (≈ 0.738 µM)	1.56 (≈ 2.95 µM)	0.2 (≈ 0.378 µM)	0.78 (≈ 1.48 µM)	0.2 (≈ 0.378 µM)	3.13 (≈ 5.92 µM)	0.78 (≈ 1.48 µM)	> 100	0.39 (≈ 0.738 µM)	3.13 (≈ 5.92 µM)	0.39 (≈ 0.738 µM)	MIC (S. epidemidis IAM 1296): 0.1 µg/mL (≈ 0.189 µM); MIC (P. aeruginosa AKR17): > 100 µg/mL; MIC (A. faecalis ATCC 3750): 0.78 µg/mL (≈ 1.48 µM); MIC (P. vulugaris OX-19): 0.2 µg/mL (≈ 0.378 µM); MIC (S. marcescens IAM 1184): 0.39 µg/mL (≈ 0.738 µM)
Nc1nc(/C(=N/O)C(=O)N[C@@H]2C(=O)N3C(C(=O)[O-])=C(C[n+]4cccc(-c5ncno5)c4)CS[C@H]23)ns1 [Ex. 5, 7β-[2-(5-amino-1,2,4-thiadiazol-3-yl)-2-syn-hydroxyiminoacetamido]-3-[3-(1,2,4-oxadiazol-5-yl)pyridinio]methyl-3-cephem-4-carboxylate]	3.13 (≈ 5.91 µM)	0.39 (≈ 0.737 µM)	50 (≈ 94.4 µM)	> 100	12.5 (≈ 23.6 µM)	3.13 (≈ 5.91 µM)	6.25 (≈ 11.8 µM)	100 (≈ 189 µM)	12.5 (≈ 23.6 µM)	1.56 (≈ 2.95 µM)	3.13 (≈ 5.91 µM)	3.13 (≈ 5.91 µM)	0.78 (≈ 1.47 µM)	6.25 (≈ 11.8 µM)	50 (≈ 94.4 µM)	6.25 (≈ 11.8 µM)	> 100	6.25 (≈ 11.8 µM)	25 (≈ 47.2 µM)	3.13 (≈ 5.91 µM)	MIC (S. epidemidis IAM 1296): 0.78 µg/mL (≈ 1.47 µM); MIC (P. aeruginosa AKR17): > 100 µg/mL; MIC (A. faecalis ATCC 3750): 12.5 µg/mL (≈ 23.6 µM); MIC (P. vulugaris OX-19): 6.25 µg/mL (≈ 11.8 µM); MIC (S. marcescens IAM 1184): 6.25 µg/mL (≈ 11.8 µM)
Nc1nc(-c2ccc[n+](CC3=C(C(=O)[O-])N4C(=O)[C@@H](NC(=O)/C(=N\O)c5csc(N)n5)[C@H]4SC3)c2)no1 [Ex. 14, 7β-[2-(2-aminothiazol-4-yl)-2-syn-hydroxyiminoacetamido)-3-[3-(5-amino-1,2,4-oxadiazol-3-yl)pyridinio]methyl-3-cephem-4-carboxylate]	0.39 (≈ 0.718 µM)	0.05 (≈ 0.092 µM)	12.5 (≈ 23 µM)	> 100	12.5 (≈ 23 µM)	0.2 (≈ 0.368 µM)	0.39 (≈ 0.718 µM)	100 (≈ 184 µM)	0.78 (≈ 1.44 µM)	0.2 (≈ 0.368 µM)	3.13 (≈ 5.76 µM)	0.39 (≈ 0.718 µM)	0.2 (≈ 0.368 µM)	0.2 (≈ 0.368 µM)	6.25 (≈ 11.5 µM)	0.78 (≈ 1.44 µM)	> 100	0.39 (≈ 0.718 µM)	3.13 (≈ 5.76 µM)	0.39 (≈ 0.718 µM)	MIC (S. epidemidis IAM 1296): 0.1 µg/mL (≈ 0.184 µM); MIC (P. aeruginosa AKR17): > 100 µg/mL; MIC (A. faecalis ATCC 3750): 3.13 µg/mL (≈ 5.76 µM); MIC (P. vulugaris OX-19): 0.39 µg/mL (≈ 0.718 µM); MIC (S. marcescens IAM 1184): 0.78 µg/mL (≈ 1.44 µM)
